# Assay results from ChEMBL document CHEMBL4616593, “Formaldehyde-activated WEHI-150 induces DNA interstrand crosslinks with unique structural features” (Bioorg Med Chem, 2020).
# Calls of active or inactive are those of the source. No cut-off for these calls is given here.
# Experiments:
# Type in all cases: nucleic-acid assay
# DNA [1] = experiment: Stabilization of dsBE67 oligonucleotide (unknown origin) assessed as drug-DNA adduct formation at 5 to 50 uM incubated for 4 hrs in presence of formaldehyde using [gamma-32P]ATP by phosphorimaging analysis relative to control
# DNA [2] = experiment: Stabilization of [32P]-labelled dsDNA (unknown origin) assessed as drug-DNA adduct formation by measuring adduct half life incubated for 12 hrs in presence of formaldehyde by phosphorimaging analysis
# DNA [3] = experiment: Binding affinity to dsBE45 oligonucleotide (unknown origin) assessed as drug-DNA adduct formation at 5 to 50 uM incubated for 4 hrs in presence of formaldehyde using [gamma-32P]ATP by phosphorimaging analysis
# DNA [4] = experiment: Stabilization of dsBE15 oligonucleotide (unknown origin) assessed as drug-DNA adduct formation at 5 to 50 uM incubated for 4 hrs in presence of formaldehyde using [gamma-32P]ATP by phosphorimaging analysis
# DNA [5] = experiment: Stabilization of dsBE17 oligonucleotide (unknown origin) assessed as drug-DNA adduct formation at 5 to 50 uM incubated for 4 hrs in presence of formaldehyde using [gamma-32P]ATP by phosphorimaging analysis
# DNA [6] = experiment: Stabilization of [32P]-labelled dsDNA (unknown origin) assessed as drug-DNA adduct formation at 1 uM to 24 uM incubated for 12 hrs in presence of formaldehyde by phosphorimaging analysis
# DNA [7] = experiment: Stabilization of dsBE12 oligonucleotide (unknown origin) assessed as drug-DNA adduct formation at 5 to 50 uM incubated for 4 hrs in presence of formaldehyde using [gamma-32P]ATP by phosphorimaging analysis relative to control
# DNA [8] = experiment: Stabilization of [32P]-labelled dsDNA (unknown origin) assessed as drug-DNA adduct formation by measuring adduct half life at 10 uM in presence of formaldehyde by phosphorimaging analysis
# DNA [9] = experiment: Stabilization of [32P]-labelled dsDNA (unknown origin) assessed as drug-DNA adduct formation at 5 uM in presence of formaldehyde incubated for 12 hrs by phosphorimaging analysis relative to control
# DNA [10] = experiment: Stabilization of [32P]-labelled dsDNA (unknown origin) assessed as drug-DNA adduct formation by measuring residual dsDNA level at 2.5 uM measured after 16 hrs in presence of formaldehyde by phosphorimaging analysis relative to control
# DNA [11] = experiment: Induction of transcriptional blockage of 512 bp DNA fragment (unknown origin) assessed as loss of full length transcript comprising 379 nucleotide at 10 uM incubated for 4 hrs in presence of formaldehyde using [alpha-32P]UTP by phosphorimaging analysis relative to control
# DNA [12] = experiment: Stabilization of dsBE15 oligonucleotide (unknown origin) assessed as drug-DNA adduct formation at 50 uM incubated for 4 hrs in presence of formaldehyde using [gamma-32P]ATP by phosphorimaging analysis relative to control
# DNA [13] = experiment: Stabilization of [32P]-labelled dsDNA (unknown origin) assessed as drug-DNA adduct formation incubated for 12 hrs in presence of formaldehyde by phosphorimaging analysis
# DNA [14] = experiment: Induction of transcriptional blockage of 512 bp DNA fragment (unknown origin) at 2.5 uM incubated for 4 hrs in presence of formaldehyde using [alpha-32P]UTP by phosphorimaging analysis
# DNA [15] = experiment: Induction of transcriptional blockage of 512 bp DNA fragment (unknown origin) assessed as loss of full length transcript comprising 379 nucleotide at 5 uM incubated for 4 hrs in presence of formaldehyde using [alpha-32P]UTP by phosphorimaging analysis
# DNA [16] = experiment: Stabilization of [32P]-labelled dsDNA (unknown origin) assessed as drug-DNA adduct formation by measuring increase in retardation of dsDNA migration on gel at >3 uM incubated for 12 hrs in presence of formaldehyde by phosphorimaging analysis
# DNA [17] = experiment: Stabilization of [32P]-labelled dsDNA (unknown origin) assessed as drug-DNA adduct formation by measuring residual dsDNA level at 6 uM measured after 10 days in presence of formaldehyde by phosphorimaging analysis relative to control
# DNA [18] = experiment: Stabilization of [32P]-labelled dsDNA (unknown origin) assessed as drug-DNA adduct formation by measuring residual dsDNA level at 6 uM measured after 16 hrs in presence of formaldehyde by phosphorimaging analysis relative to control
# DNA [19] = experiment: Induction of transcriptional blockage of 512 bp DNA fragment (unknown origin) at 2.5 to 10 uM incubated for 4 hrs in presence of formaldehyde using [alpha-32P]UTP by phosphorimaging analysis
Activity (DNA [1]),T1/2 (DNA [2]) [h],Activity (DNA [3]),Activity (DNA [4]),Activity (DNA [5]),Activity (DNA [6]),Activity (DNA [7]),T1/2 (DNA [8]) [h],Activity (DNA [9]) [%],Activity (DNA [10]) [%],Activity (DNA [11]) [%],Activity (DNA [12]) [%],Activity (DNA [13]),Activity (DNA [14]),Activity (DNA [15]),Activity (DNA [16]),Activity (DNA [17]) [%],Activity (DNA [18]) [%],Activity (DNA [19]),SMILES
10%,24,inactive,inactive,Active,Active,inactive,27,50,–,–,–,–,–,–,–,–,–,–,NCCCCCNc1ccc(F)c2c1C(=O)c1c(O)ccc(O)c1C2=O
< 55%,2.3,inactive,inactive,Active,Active,30%,–,30,–,–,–,–,–,–,–,–,–,–,NCCNc1ccc(NCCN)c2c1C(=O)c1c(O)ccc(O)c1C2=O
Active,12.5,Active,–,Active,–,< 80%,–,90 to 100,20,100,> 75,Dose-dependent effect,Active,Active,Active,–,–,–,NCCNCCNc1ccc(NCCNCCN)c2c1C(=O)c1c(O)ccc(O)c1C2=O
–,0.42,–,–,–,–,Active,–,5,–,–,–,–,–,–,–,–,–,–,O=C1c2c(O)ccc(O)c2C(=O)c2c(NCCNCCO)ccc(NCCNCCO)c21
30%,53,inactive,inactive,Active,Active,20%,–,40,–,–,–,–,–,–,–,17,–,–,NCCCCCNc1ccc(NCCCCCN)c2c1C(=O)c1c(O)ccc(O)c1C2=O
–,–,–,–,–,inactive,–,–,< 1,–,–,–,–,–,–,–,–,–,–,NCCCCCNc1ccc(F)c2c1C(=O)c1ccncc1C2=O
Active,10,–,Active,Active,–,Active,–,25,–,–,–,Dose-dependent effect,–,–,–,–,20,Active,NCCNCCNc1ccc(F)c2c1C(=O)c1c(O)ccc(O)c1C2=O
–,–,–,–,–,inactive,–,–,< 2,–,–,–,–,–,–,–,–,–,–,NCCCCCNc1ccc(NCCCCCN)c2c1C(=O)c1ccncc1C2=O
